Our source for the IC50 values is patent US20240010684A1, “MASP INHIBITORY COMPOUNDS AND USES THEREOF” (BAYER AKTIENGESELLSCHAFT, priority 2020, published 2024).

Where a SMILES comes first, the peptide text is derived from it. Bridges are numbered along the chain shown (N, C = ends). [ ]: non-standard residue; d: D form. ξ: configuration not given here. Oic = O=C(O)[C@@H]1C[C@@H]2CCCC[C@@H]2N1; Trx = NC[C@H]1CC[C@H](C(=O)O)CC1; tBuAla = CC(C)(C)C[C@H](N)C(=O)O; Pen = CC(C)(S)[C@H](N)C(=O)O; ξIle = CC[C@H](C)C(N)C(=O)O; NMeC = CN[C@@H](CS)C(=O)O; Orn = NCCC[C@H](N)C(=O)O; Dap = NC[C@H](N)C(=O)O; ξD = NC(CC(=O)O)C(=O)O; Ahx = NCCCCCC(=O)O

For assay [1], the system named is Human C3-DEPOSITION SERUM. As to the kind of experiment: C3 deposition assay, human serum on mannan-coated plates. As to conditions: Average IC50, read-out: Human C3-DEPOSITION SERUM IC50. Type of assay: biochemical. The method, then: 3. C3 Deposition Assay (Human, Rat, Mouse, Dog, Pig))
The C3 deposition assay was conducted essentially as described (reference). Multiwell plates (Greiner-Nunc 384 Maxi Sorp #464718) were coated over night with Mannan from Saccharomyces cerevisiae (Sigma M7504, 10 μg/mL in 0.05 M carbonate-bicarbonate buffer, pH 9.6) at 4° C. Wells were washed three times with TBS and subsequently incubated for 2 hours with 50 μL of 1% bovine serum albumin (BSA) in Tris-buffered saline (TBS) at 37° C. in order to block non-specific binding. After this step and each of the following incubation steps wells were washed three times with C3 wash buffer (TBS; 0.05% Tween 20; 5 mM CaCl2). […] When appropriately developed the color reaction was stopped by addition of 25 μL of stop solution (Sigma S5814) and quantified on a photometer by measuring absorption at a wavelength of 450 nm. Antibodies were diluted in C3 wash buffer supplemented with 0.5% BSA.

The target of the next assay is human MASP1 (Homo sapiens (Human), UniProt P48740). As to the kind of experiment: Biochemical human MASP1 assay (FRET substrate). The note with it: Average IC50; recombinant human MASP1; read-out: human MASP1 IC50. Summed up: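 IC50 derived from % inhibition versus compound concentration, with fluorescence increase read at 320/420 nm after 60-120 min at 32 C. Enzyme: HEK293-secreted, His-tagged human MASP1 fragment 297-699 at 20 nM in HEPES pH 8,0 buffer with NaCl, CHAPS, glutathione; substrate ABZ-peptide-Lys(Dnp)-NH2 added as 20 μM solution.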

In a further assay the target is human MASP2 (Homo sapiens (Human), UniProt O00187). As to the kind of experiment: Biochemical human MASP2 assay (FRET substrate). As to conditions: Average IC50; recombinant human MASP2; read-out: human MASP2 IC50. Summed up:
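IC50 came from % inhibition across compound concentrations, with fluorescence (ex 340 nm, em 490 nm) read after 60-120 min at 32 C. Substrate was a DABCYL FRET peptide, added as a 60 μM solution, cleaved by HEK293-expressed, Ni-NTA-purified mature recombinant human MASP2.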

Sequence of human MASP1 (P48740 other isoform, or with tags, fused parts or gaps): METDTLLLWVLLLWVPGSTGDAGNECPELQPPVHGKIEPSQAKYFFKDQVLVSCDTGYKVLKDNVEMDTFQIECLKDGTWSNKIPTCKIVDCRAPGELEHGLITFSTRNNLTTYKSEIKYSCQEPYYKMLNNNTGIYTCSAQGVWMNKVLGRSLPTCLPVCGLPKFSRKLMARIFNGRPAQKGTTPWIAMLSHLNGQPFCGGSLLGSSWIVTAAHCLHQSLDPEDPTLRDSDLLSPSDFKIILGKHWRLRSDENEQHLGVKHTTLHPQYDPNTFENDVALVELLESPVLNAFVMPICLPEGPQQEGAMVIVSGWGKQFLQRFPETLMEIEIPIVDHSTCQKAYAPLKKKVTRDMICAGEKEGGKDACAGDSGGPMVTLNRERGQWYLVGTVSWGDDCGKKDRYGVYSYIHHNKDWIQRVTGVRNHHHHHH
Sequence of human MASP2 (O00187 other isoform, or with tags, fused parts or gaps): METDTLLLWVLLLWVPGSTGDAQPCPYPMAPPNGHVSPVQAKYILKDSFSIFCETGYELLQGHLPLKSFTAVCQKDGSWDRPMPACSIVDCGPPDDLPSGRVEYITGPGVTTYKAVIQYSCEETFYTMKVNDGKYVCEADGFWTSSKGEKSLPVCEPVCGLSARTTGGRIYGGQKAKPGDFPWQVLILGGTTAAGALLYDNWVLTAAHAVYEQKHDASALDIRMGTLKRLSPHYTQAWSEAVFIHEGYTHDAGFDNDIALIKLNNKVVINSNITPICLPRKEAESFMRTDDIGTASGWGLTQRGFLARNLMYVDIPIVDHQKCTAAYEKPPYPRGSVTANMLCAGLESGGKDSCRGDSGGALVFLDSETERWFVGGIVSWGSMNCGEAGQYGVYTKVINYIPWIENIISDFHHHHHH

Take `CC[C@H](C)[C@@H]1NC(=O)[C@H](CN)NC(=O)[C@H](CN)NC(=O)[C@@H]2CCCN2C(=O)[C@H]([C@@H](C)CC)NC(=O)[C@H]2NC(=O)[C@H]([C@@H](C)CC)NC(=O)[C@@H]3CCCN3C(=O)[C@@H]3CCCN3C(=O)[C@H](CC(C)(C)C)NC(=O)[C@H](CO)NC(=O)[C@H](CCCNC(=N)N)NC(=O)[C@H](CO)NC(=O)[C@H](CSSC2(C)C)NC1=O` [Example 97]: the values for the IC50 (in assay [1]; at human MASP1; at human MASP2) were 56.4 nM, 5 nM and 760 nM, respectively.
Consider `CC[C@H](C)[C@@H]1NC(=O)CNC(=O)CNC(=O)[C@H](C)NC(=O)[C@H](CC(=O)O)NC(=O)[C@@H]2CCCN2C(=O)[C@H]([C@@H](C)CC)NC(=O)[C@H]2NC(=O)[C@H]([C@@H](C)CC)NC(=O)[C@@H]3CCCN3C(=O)[C@@H]3CCCN3C(=O)[C@H](CC(C)(C)C)NC(=O)[C@H](CO)NC(=O)[C@H](CCCNC(=N)N)NC(=O)[C@H](CO)NC(=O)[C@H](CSSC2(C)C)NC1=O` [Example 29] (cyclo(AGGICSRS[tBuAla]PPI[Pen]IPD); disulfide 5-13), for which the IC50 – broadly, the concentration at which inhibition is half-maximal – in assay [1] was 84.6 nM; on human MASP1, 8.6 nM; at human MASP2 it was 68 nM.
As for `CC[C@H](C)C1NC(=O)[C@@H]2CSSC[C@H](NC(=O)[C@H]([C@@H](C)CC)NC(=O)[C@H](C)NC(=O)[C@@H](N)CCCNC(=O)C[C@@H](C(N)=O)NC(=O)[C@@H]3CCCN3C1=O)C(=O)N[C@@H](CO)C(=O)N[C@@H](CCCNC(=N)N)C(=O)N[C@@H](CO)C(=O)N[C@@H](CC(C)(C)C)C(=O)N1CCC[C@H]1C(=O)N1CCC[C@H]1C(=O)N[C@@H]([C@@H](C)CC)C(=O)N2C` (stereo partly drawn) [Example 44] (H-[Orn]AICSRS[tBuAla]PPI[NMeC][ξIle]PD-NH2; lactam 1-15; disulfide 4-12), the IC50 in assay [1] came to 23.7 nM; at human MASP1, 4.7 nM; on human MASP2, 230 nM.
For `CC[C@H](C)[C@@H]1NC(=O)CCCNC(=O)[C@H](CC(=O)O)NC(=O)[C@@H]2CCCN2C(=O)[C@H]([C@@H](C)CC)NC(=O)[C@@H]2CSSC[C@H](NC1=O)C(=O)N[C@@H](CO)C(=O)N[C@@H](CCCNC(=N)N)C(=O)N[C@@H](CO)C(=O)N[C@@H](CC(C)(C)C)C(=O)N1CCC[C@H]1C(=O)N1CCC[C@H]1C(=O)N[C@@H]([C@@H](C)CC)C(=O)N2C` [Example 36], in that order: 8.68 nM, 8.7 nM and 110 nM.
`CC[C@H](C)[C@@H]1NC(=O)[C@H](C)NC(=O)[C@@H](N)CSSC[C@@H](C(N)=O)NC(=O)[C@H](CC(=O)O)NC(=O)[C@@H]2CCCN2C(=O)[C@H]([C@@H](C)CC)NC(=O)[C@H]2NC(=O)[C@H]([C@@H](C)CC)NC(=O)[C@@H]3CCCN3C(=O)[C@@H]3CCCN3C(=O)[C@H](CC(C)(C)C)NC(=O)[C@H](CO)NC(=O)[C@H](CCCNC(=N)N)NC(=O)[C@H](CO)NC(=O)[C@H](CSSC2(C)C)NC1=O` [Example 50] (H-CAICSRS[tBuAla]PPI[Pen]IPDC-NH2; disulfide 1-16, 4-12): the IC50 came out at 228 nM in assay [1], 13 nM on human MASP1 and 210 nM at human MASP2.
As to `CC[C@H](C)[C@@H]1NC(=O)[C@H](CN)NC(=O)[C@@H](N)CNC(=O)[C@@H]2CCCN2C(=O)[C@H]([C@@H](C)CC)NC(=O)[C@H]2NC(=O)[C@H]([C@@H](C)CC)NC(=O)[C@@H]3C[C@@H]4CCCC[C@@H]4N3C(=O)[C@@H]3CCCN3C(=O)[C@H](CC(C)C)NC(=O)[C@H](CO)NC(=O)[C@H](CCCNC(=N)N)NC(=O)[C@H](CO)NC(=O)[C@H](CSSC2(C)C)NC1=O` [Example 86] (H-[Dap][Dap]ICSRSLP[Oic]I[Pen]IP; lactam 1-C; disulfide 4-12), the IC50 in assay [1] was found to be 46.3 nM; at human MASP1, 27 nM; at human MASP2 it was 1000 nM.
In the case of `CC[C@H](C)[C@@H]1NC(=O)[C@H](C)NC(=O)CNC(=O)C[C@@H](C(N)=O)NC(=O)[C@@H]2CCCN2C(=O)[C@H]([C@@H](C)CC)NC(=O)[C@@H]2CSSC[C@H](NC1=O)C(=O)N[C@@H](CO)C(=O)N[C@@H](CCCNC(=N)N)C(=O)N[C@@H](CO)C(=O)N[C@@H](CC(C)C)C(=O)N1CCC[C@H]1C(=O)N1CCC[C@H]1C(=O)N[C@@H]([C@@H](C)CC)C(=O)N2` [Example 37] (GAICSRSLPPICIPD-NH2; disulfide 4-12; lactam N-15), the half-maximal inhibitory concentration (IC50) amounted to 59.4 nM in assay [1], 16 nM at human MASP1 and 140 nM at human MASP2.
In the same order, the values of `CC[C@H](C)[C@@H]1NC(=O)[C@H](C)NC(=O)CCCCCNC(=O)[C@H](CC(=O)O)NC(=O)[C@@H]2CCCN2C(=O)[C@H]([C@@H](C)CC)NC(=O)[C@@H]2CSSC[C@H](NC1=O)C(=O)N[C@@H](CO)C(=O)N[C@@H](CCCNC(=N)N)C(=O)N[C@@H](CO)C(=O)N[C@@H](CC(C)(C)C)C(=O)N1CCC[C@H]1C(=O)N1CCC[C@H]1C(=O)N[C@@H]([C@@H](C)CC)C(=O)N2` [Example 46] (cyclo(AICSRS[tBuAla]PPICIPD[Ahx]); disulfide 3-11) are 228 nM, 56 nM and 89 nM.
In the same order, the values of `CC[C@H](C)[C@@H]1NC(=O)CNC(=O)[C@H]2CC[C@@H](CC2)CNC(=O)CNC(=O)CC(C(N)=O)NC(=O)[C@@H]2CCCN2C(=O)[C@H]([C@@H](C)CC)NC(=O)[C@H]2NC(=O)[C@H]([C@@H](C)CC)NC(=O)[C@@H]3CCCN3C(=O)[C@@H]3CCCN3C(=O)[C@H](CC(C)(C)C)NC(=O)[C@H](CO)NC(=O)[C@H](CCCNC(=N)N)NC(=O)[C@H](CO)NC(=O)[C@H](CSSC2(C)C)NC1=O` (stereo partly drawn) [Example 62, (1R,4S,10S,21S,24S,30S,33R,36S,39S,42S,45S,51S,57S,60S)-4,30,60-tri[(2S)-butan-2-yl]-39-(3-carbamimidamidopropyl)-45-(2,2-dimethylpropyl)-36,42-bis(hydroxymethyl)-63,63-dimethyl-2,5,11,15,18,25,28,31,34,37,40,43,46,52,58,61-hexadecaoxo-64,65-dithia-3,6,12,16,19,26,29,32,35,38,41,44,47,53,59,62-hexadecaazahexacyclo[31.29.4.2^21,240.0^6,100.0^47,510.0^53,57]octahexacontane-13-carboxamide] (G[Trx]GICSRS[tBuAla]PPI[Pen]IP[ξD]-NH2; disulfide 5-13; lactam N-16) are 149 nM, 22 nM and 540 nM.
For `CC[C@H](C)[C@@H]1NC(=O)[C@H](CN)NC(=O)[C@H](CN)NC(=O)[C@H]([C@@H](C)CC)NC(=O)[C@H]2NC(=O)[C@H]([C@@H](C)CC)NC(=O)[C@@H]3CCCN3C(=O)[C@@H]3CCCN3C(=O)[C@H](CC(C)(C)C)NC(=O)[C@H](CO)NC(=O)[C@H](CCCNC(=N)N)NC(=O)[C@H](CO)NC(=O)[C@H](CSSC2(C)C)NC1=O` [Example 57, N-{3-[(5aS,11S,14S,17S,20S,23R,26S,29S,32S,35S,38R,41S,43aS)-29,32-bis(aminomethyl)-26,35,41-tri[(2S)-butan-2-yl]-11-(2,2-dimethylpropyl)-14,20-bis(hydroxymethyl)-44,44-dimethyl-5,10,13,16,19,22,25,28,31,34,37,40,43-tridecaoxodotetracontahydro-5H-23,38-(methanodithiomethano)dipyrrolo[1,2-a:1′,2′-d]-[1,4,7,10,13,16,19,22,25,28,31,34,37]tridecaazacyclononatriacontin-17-yl]propyl}guanidine] (cyclo(CSRS[tBuAla]PPI[Pen]I[Dap][Dap]I); disulfide 1-9), the figures for the IC50 (in assay [1]; on human MASP1; at human MASP2) were 236 nM, 46 nM and 340 nM, respectively.
